Counter-ions that a name gives are not always drawn.
Assay: Inhibition of NHE1-mediated rat platelet swelling

| IC50 | SMILES |
| --- | --- |
| 3.6 nM | COc1ccc(CN2CCN(Cc3ccc(C(=O)NC(=N)N)cc3[N+](=O)[O-])CC2)c(OC)c1OC |
| 248 nM | COc1ccc(CN2CCN(Cc3ccc(C(=O)NC(=N)N)cc3Br)CC2)c(OC)c1OC [3-bromo-N-(diaminomethylene)-4-((4-(2,3,4-trimethoxybenzyl)piperazin-1-yl)methyl)benzamide hydrochloride] |
| 11.1 nM | COc1ccc(CN2CCN(Cc3ccccc3C(=O)NC(=N)N)CC2)c(OC)c1OC [N-(diaminomethylene)-2-((4-(2,3,4-trimethoxybenzyl)piperazin-1-yl)methyl)benzamide hydrochloride] |
| 36.5 nM | COc1ccc(CN2CCN(Cc3cccc(C(=O)NC(=N)N)c3)CC2)c(OC)c1OC [N-(diaminomethylene)-3-((4-(2,3,4-trimethoxybenzyl)piperazin-1-yl)methyl)benzamide hydrochloride] |
| 15 nM | CNS(=O)(=O)c1cc(C(=O)NC(=N)N)ccc1CN1CCN(Cc2ccc(OC)c(OC)c2OC)CC1 [N-(diaminomethylene)-3-(N-methylsulfamoyl)-4-((4-(2,3,4-trimethoxybenzyl)piperazin-1-yl)methyl)benzamide hydrochloride] |
| 1150 nM | CCCNS(=O)(=O)c1cc(C(=O)NC(=N)N)ccc1CN1CCN(Cc2ccc(OC)c(OC)c2OC)CC1 [N-(diaminomethylene)-3-(N-propylsulfamoyl)-4-((4-(2,3,4-trimethoxybenzyl)piperazin-1-yl)methyl)benzamide hydrochloride] |
| 18.7 nM | COc1ccc(CN2CCN(C(C)c3ccc(C(=O)NC(=N)N)cc3[N+](=O)[O-])CC2)c(OC)c1OC (stereo unspecified) [N-(diaminomethylene)-3-nitro-4-(1-(4-(2,3,4-trimethoxybenzyl)piperazin-1-yl)ethyl)benzamide hydrochloride] |
| 11.5 nM | COc1ccc(CN2CCN(Cc3ccc(C(=O)NC(=N)N)cc3S(N)(=O)=O)CC2)c(OC)c1OC [N-(diaminomethylene)-3-sulfamoyl-4-((4-(2,3,4-trimethoxybenzyl)piperazin-1-yl)methyl)benzamide hydrochloride] |
| 40.5 nM | COc1ccc(CN2CCN(C(C)c3ccc(C(=O)NC(=N)N)cc3)CC2)c(OC)c1OC (stereo unspecified) [N-(diaminomethylene)-4-(1-(4-(2,3,4-trimethoxybenzyl)piperazin-1-yl)ethyl)benzamide hydrochloride] |
| 36.4 nM | COc1ccc(CN2CCN(Cc3ccc(C(=O)NC(=N)N)cc3)CC2)c(OC)c1OC [N-(diaminomethylene)-4-((4-(2,3,4-trimethoxybenzyl)piperazin-1-yl)methyl)benzamide hydrochloride] |
| 14.2 nM | COc1ccc(CN2CCN(Cc3cc(C(=O)NC(=N)N)ccc3[N+](=O)[O-])CC2)c(OC)c1OC [N-(diaminomethylene)-4-nitro-3-((4-(2,3,4-trimethoxybenzyl)piperazin-1-yl)methyl)benzamide hydrochloride] |

From BindingDB's records for doi:10.1016/j.bmcl.2009.04.079 (China Pharmaceutical University, 2009)
